# Publication PMC11911254 (Pharmacological Reports, 2025)
# “And” between values parts separate entries of the source, which are not always exact repeats. Equal entries are not always repeated.
# Assay: Concentration of paracetamol and its metabolites in plasma, CSF and brain cortex by LC-MS/MS
# Description: Drug injection protocol is illustrated in Fig. 1.
# Male and female postnatal P4 pups and 7–8 week-old non-pregnant females were used. […] In combination therapy experiments, this dose was accompanied by one of the 7 other drugs (Table 1). For all experiments, animals were terminally anesthetized 30 min after the drug injection using inhaled isoflurane (IsoFlo 100% w/w, Abbott Laboratories), and blood, CSF, and brain samples were collected. Blood was collected directly from the right cardiac ventricle, CSF from the cisterna magna, and cortical brain samples from the frontal/parietal lobes dorsal to the lateral ventricles as described previously.
# Pregnant E19 dams were anesthetized with ip urethane injection (25% w/v urethane, Sigma, 1 ml/100 g body weight) and placed on a 39 °C heating pad in the supine position. An endotracheal catheter was inserted to maintain a clear airway. Catheters were inserted into the femoral vein and artery for iv drug administration and arterial blood sampling respectively. The cannula was flushed with 0.5 ml of heparinized saline (Hospira Inc, 5,000 units/ml) after drug administration and following each arterial blood sample. Following drug administration to the dams, fetuses were exteriorized and serially collected starting at 30 min post-maternal injection. […] At collection, the viability of each fetus was assessed (presence of a heartbeat, the colour of the umbilical vessels) and blood, CSF, and brain samples were taken along with a time-matched maternal blood sample from the femoral artery. At the end of the experiment, a final maternal blood sample was taken directly from the left cardiac ventricle, and CSF and brain samples were collected.
# This method has been described previously for valproate, lamotrigine, and olanzapine and was applied in the present study. Simultaneous quantification was performed for all compounds in plasma, brain, and CSF samples following the addition of respective stable isotope-labeled internal standards.
# Linear response range was determined in untreated control rat plasma for each compound at 0.1, 1, 10, 50, 100, 200, 400, and 800 µg/ml.
# [1] = E19 rats, maternal iv paracetamol 15 mg/kg + cimetidine 11 mg/kg (PARA+CIM, n=10), median (IQR)
# [2] = E19 rats, maternal iv paracetamol 15 mg/kg + digoxin 0.03 mg/kg (PARA+DIG, n=9), median (IQR)
# [3] = E19 rats, maternal iv paracetamol 15 mg/kg + lamotrigine 6 mg/kg (PARA+LTG, n=10), median (IQR)
# [4] = E19 rats, maternal iv paracetamol 15 mg/kg + olanzapine 0.15 mg/kg (PARA+OLZ, n=10), median (IQR), all values if <3 detected
# [5] = E19 rats, maternal iv paracetamol 15 mg/kg + valproate 30 mg/kg (PARA+VPA, n=10), median (IQR)
# [6] = E19 rats, maternal iv paracetamol 15 mg/kg + valproate 30 mg/kg (PARA+VPA, n=10), median (IQR), all values if <3 detected
# [7] = E19 rats, maternal iv paracetamol 15 mg/kg monotherapy (PARA, n=10), median (IQR)
# [8] = P4 rats, 30 min after ip paracetamol 15 mg/kg + cimetidine 11 mg/kg (PARA+CIM, n=4), median (IQR)
# [9] = P4 rats, 30 min after ip paracetamol 15 mg/kg + digoxin 0.03 mg/kg (PARA+DIG, n=4), median (IQR)
# [10] = P4 rats, 30 min after ip paracetamol 15 mg/kg + fluvoxamine 1.5 mg/kg (PARA+FLX, n=4), median (IQR)
# [11] = P4 rats, 30 min after ip paracetamol 15 mg/kg + fluvoxamine 1.5 mg/kg (PARA+FLX, n=4), median (IQR) or individual values
# [12] = P4 rats, 30 min after ip paracetamol 15 mg/kg + lithium 3.2 mg/kg (PARA+Li, n=4), median (IQR)
# [13] = P4 rats, 30 min after ip paracetamol 15 mg/kg + olanzapine 0.15 mg/kg (PARA+OLZ, n=4), median (IQR)
# [14] = P4 rats, 30 min after ip paracetamol 15 mg/kg monotherapy (PARA, n=4), median (IQR)
# [15] = non-pregnant adult rats, 30 min after ip paracetamol 15 mg/kg + fluvoxamine 1.5 mg/kg (PARA+FLX, n=4), median (IQR)
# [16] = non-pregnant adult rats, 30 min after ip paracetamol 15 mg/kg + fluvoxamine 1.5 mg/kg (PARA+FLX, n=4), median (IQR), individual values if <3 samples
# [17] = non-pregnant adult rats, 30 min after ip paracetamol 15 mg/kg + olanzapine 0.15 mg/kg (PARA+OLZ, n=4), median (IQR)
# [18] = non-pregnant adult rats, 30 min after ip paracetamol 15 mg/kg monotherapy (PARA, n=6), median (IQR)
# [19] = P4 rats, 30 min after ip paracetamol 15 mg/kg + lamotrigine 6 mg/kg (PARA+LTG, n=5), median (IQR)
# [20] = P4 rats, 30 min after ip paracetamol 15 mg/kg + valproate 30 mg/kg (PARA+VPA, n=4), median (IQR) or individual values
# [21] = non-pregnant adult rats, 30 min after ip paracetamol 15 mg/kg + digoxin 0.03 mg/kg (PARA+DIG, n=3), median (IQR)
# [22] = non-pregnant adult rats, 30 min after ip paracetamol 15 mg/kg + lamotrigine 6 mg/kg (PARA+LTG, n=3), median (IQR), individual values if <3 samples
smiles,measurement,setting,value
"CC(=O)Nc1ccc(O[C@@H]2O[C@H](C(=O)O)[C@@H](O)[C@H](O)[C@H]2O)cc1 [Paracetamol-Glucuronide, paracetamol-glucuronide]",Concentration in CSF,[1],N.D. (N.D. (not detected) are values <0.01μg/ml)
same,Concentration in brain,[1],N.D. (N.D. (not detected) are values <0.01μg/ml)
same,Concentration in CSF,[2],0.2 µg/mL
same,Concentration in brain,[2],0.5 µg/mL
same,Concentration in CSF,[3],N.D. (N.D. (not detected) are values <0.01μg/ml)
same,Concentration in brain,[3],N.D. (N.D. (not detected) are values <0.01μg/ml)
same,Concentration in brain,[4],0.7 µg/mL
same,Concentration in CSF,[5],N.D. (N.D. (not detected) are values <0.01μg/ml)
same,Concentration in brain,[6],N.D. (N.D. (not detected) are values <0.01μg/ml)
same,Concentration in CSF,[7],N.D. (N.D. (not detected) are values <0.01μg/ml)
same,Concentration in brain,[7],N.D. (N.D. (not detected) are values <0.01μg/ml)
same,Concentration in CSF,[8],0.2 (0.04) µg/ml
same,Concentration in CSF,[9],0.1 (0.03) µg/ml
same,Concentration in brain,[9],0.1 µg/mL
same,Concentration in CSF,[10],0.2 (2) µg/ml
same,Concentration in brain,[11],0.1 µg/mL
same,Concentration in CSF,[12],0.1 (0.05) µg/ml
same,Concentration in brain,[12],0.2 µg/mL
same,Concentration in CSF,[13],0.5 µg/mL
same,Concentration in CSF,[14],0.2 (0.1) µg/ml
same,Concentration in CSF,[15],0.05 (0.04) µg/ml
same,Concentration in brain,[16],0.2 µg/mL and 1 µg/mL
same,Concentration in CSF,[17],0.1 µg/mL
same,Concentration in brain,[17],0.1 µg/mL
same,Concentration in brain,[18],2.0 µg/mL
same,change in plasma concentration following combination therapy,"rat, in vivo",no significant changes
"CC(=O)Nc1ccc(OS(=O)(=O)O)cc1 [Paracetamol-Sulfate, paracetamol-sulfate]",Concentration in CSF,[1],0.06 (0.04) µg/ml
same,Concentration in brain,[1],0.02 (0.02) µg/ml
same,Concentration in CSF,[2],0.05 (0.04) µg/ml
same,Concentration in brain,[2],0.01 (0.01) µg/ml
same,Concentration in plasma,[2],0.9 (0.4) µg/ml
same,Concentration in plasma,"E19 rats, maternal iv paracetamol 15 mg/kg + digoxin 0.03 mg/kg (PARA+DIG, n=9), median (IQR), listed as paracetamol-sulfate",0.9 µg/mL
same,Concentration in CSF,[3],0.08 (0.05) µg/ml
same,Concentration in brain,[3],0.02 (0.02) µg/ml
same,Concentration in plasma,[3],1.1 (0.4) µg/ml
same,Concentration in plasma,"E19 rats, maternal iv paracetamol 15 mg/kg + olanzapine 0.15 mg/kg (PARA+OLZ, n=10), median (IQR)",1.4 (0.5) µg/ml
same,Concentration in CSF,[4],0.09 (0.06) µg/ml
same,Concentration in brain,[4],0.05 (0.03) µg/ml
same,Concentration in CSF,[5],0.06 (0.03) µg/ml
same,Concentration in plasma,[6],0.9 (0.3) µg/ml
same,Concentration in plasma,"E19 rats, maternal iv paracetamol 15 mg/kg + valproate 30 mg/kg (PARA+VPA, n=10), median (IQR), all values if <3 detected, listed as paracetamol-sulfate",0.9 µg/mL
same,Concentration in CSF,[7],0.09 (0.05) µg/ml
same,Concentration in brain,[7],0.04 (0.03) µg/ml
same,Concentration in plasma,[7],1.5 (0.4) µg/ml
same,Concentration in plasma,"E19 rats, maternal iv paracetamol 15 mg/kg monotherapy (PARA, n=10), median (IQR), listed as paracetamol-sulfate",1.5 µg/mL
same,Concentration in plasma,"P4, monotherapy and combination therapy with any of the drugs investigated",around 5 µg/ml
same,Concentration in CSF,[8],0.1 (0.02) µg/ml
same,Concentration in brain,[8],0.06 (0.02) µg/ml
same,Concentration in plasma,[8],7.5 (1.7) µg/ml
same,Concentration in CSF,[9],0.1 (0.02) µg/ml
same,Concentration in brain,[9],0.07 (0.04) µg/ml
same,Concentration in plasma,[9],7.6 (3.3) µg/ml
same,Concentration in CSF,[10],0.1 (1.6) µg/ml
same,Concentration in plasma,[10],5.7 (1.4) µg/ml
same,Concentration in brain,[11],0.04 µg/mL and 0.05 µg/mL
same,Concentration in CSF,[19],0.07 (0.02) µg/ml
same,Concentration in brain,[19],0.06 (0.02) µg/ml
same,Concentration in plasma,[19],3.8 (0.9) µg/ml
same,Concentration in CSF,[12],0.1 (0.04) µg/ml
same,Concentration in brain,[12],0.08 (0.01) µg/ml
same,Concentration in plasma,[12],7.2 (1.2) µg/ml
same,Concentration in CSF,[13],0.05 ± 0.02 µg/mL
same,Concentration in brain,[13],0.02 µg/mL
same,Concentration in plasma,[13],2.7 (1.0) µg/ml
same,Concentration in CSF,"P4 rats, 30 min after ip paracetamol 15 mg/kg + valproate 30 mg/kg (PARA+VPA, n=4), median (IQR)",0.06 (0.01) µg/ml
same,Concentration in brain,[20],0.05 µg/mL
same,Concentration in plasma,[20],4.1 (2.1) µg/ml
same,Concentration in CSF,[14],0.09 (0.05) µg/ml
same,Concentration in brain,[14],0.09 (0.03) µg/ml
same,Concentration in plasma,[14],3.1 (1.8) µg/ml
same,change in plasma concentration following combination therapy,"adults, any of the drugs investigated, Kruskal-Wallis test",no significant changes
same,Concentration in brain,"non-pregnant adult rats, 30 min after ip paracetamol 15 mg/kg + cimetidine 11 mg/kg (PARA+CIM, n=3), median (IQR)",0.2 µg/mL
same,Concentration in plasma,"non-pregnant adult rats, 30 min after ip paracetamol 15 mg/kg + cimetidine 11 mg/kg (PARA+CIM, n=3), median (IQR), individual values if <3 samples",5.5 (1.4) µg/ml
same,Concentration in CSF,[21],0.02 µg/mL
same,Concentration in plasma,[21],7.2 (2.2) µg/ml
same,Concentration in brain,"non-pregnant adult rats, 30 min after ip paracetamol 15 mg/kg + digoxin 0.03 mg/kg (PARA+DIG, n=3), median (IQR), individual values if <3 samples",0.02 µg/mL
same,Concentration in CSF,[15],0.07 (0.03) µg/ml
same,Concentration in plasma,[15],12.9 (1.0) µg/ml
same,Concentration in brain,[16],0.1 (0.4) µg/ml
same,Concentration in CSF,[22],0.02 µg/mL and 0.04 µg/mL
same,Concentration in brain,[22],0.1 µg/mL
same,Concentration in plasma,[22],11.5 (0.7) µg/ml
same,Concentration in brain,[17],0.2 (0.2) µg/ml
same,Concentration in plasma,[17],14.8 (2.7) µg/ml
same,Concentration in brain,"non-pregnant adult rats, 30 min after ip paracetamol 15 mg/kg + valproate 30 mg/kg (PARA+VPA, n=3), median (IQR)",0.1 µg/mL
same,Concentration in plasma,"non-pregnant adult rats, 30 min after ip paracetamol 15 mg/kg + valproate 30 mg/kg (PARA+VPA, n=3), median (IQR), individual values if <3 samples",12.1 (0.4) µg/ml
same,Concentration in CSF,[18],0.02 (0.01) µg/ml
same,Concentration in brain,[18],0.1 (0.1) µg/ml
same,Concentration in plasma,[18],8.8 (5.8) µg/ml
